Source: the kinase profiling compilation of Christmann-Franck et al. (2016)

What was measured:
Experiment in all cases: KINOMEscan competition binding
Settings in all cases: compound 10.0 µM
TEC (human) = TEC (human) (UniProt P42680)
PTK2B (human) = PTK2B (human) (UniProt Q14289)
IGF1R (human) = IGF1R (human) (UniProt P08069)
MYLK4 (human) = MYLK4 (human) (UniProt Q86YV6)
RIOK1 (human) = RIOK1 (human) (UniProt Q9BRS2)
CDK19 (human) = CDK19 (human) (UniProt Q9BWU1)
PRKCD (human) = PRKCD (human) (UniProt Q05655)
AAK1 (human) = AAK1 (human) (UniProt Q2M2I8)
CDK8 (human) = CDK8 (human) (UniProt P49336)
PI4KB (human) = PI4KB (human) (UniProt Q9UBF8)
PIK3CB (human) = PIK3CB (human) (UniProt P42338)
MAPK3 (human) = MAPK3 (human) (UniProt P27361)
PRKG2 (human) = PRKG2 (human) (UniProt Q13237)
CDK9 (human) = CDK9 (human) (UniProt P50750)
STK36 (human) = STK36 (human) (UniProt Q9NRP7)
[1] = test system: ABL1 (human), P00519 [Y253F]
TRPM6 (human) = TRPM6 (human) (UniProt Q9BX84)
CDK5 (human) = CDK5 (human) (UniProt Q00535)
IKBKE (human) = IKBKE (human) (UniProt Q14164)
DYRK2 (human) = DYRK2 (human) (UniProt Q92630)
MARK4 (human) = MARK4 (human) (UniProt Q96L34)
PRKD1 (human) = PRKD1 (human) (UniProt Q15139)
CSNK1G2 (human) = CSNK1G2 (human) (UniProt P78368)
PRKD2 (human) = PRKD2 (human) (UniProt Q9BZL6)
AKT1 (human) = AKT1 (human) (UniProt P31749)
MAP3K15 (human) = MAP3K15 (human) (UniProt Q6ZN16)
HUNK (human) = HUNK (human) (UniProt P57058)
CLK2 (human) = CLK2 (human) (UniProt P49760)
CDK2 (human) = CDK2 (human) (UniProt P24941)
MAP3K12 (human) = MAP3K12 (human) (UniProt Q12852)
NEK11 (human) = NEK11 (human) (UniProt Q8NG66)
EPHB1 (human) = EPHB1 (human) (UniProt P54762)
PRKCE (human) = PRKCE (human) (UniProt Q02156)
ULK1 (human) = ULK1 (human) (UniProt O75385)
NEK9 (human) = NEK9 (human) (UniProt Q8TD19)
MST1R (human) = MST1R (human) (UniProt Q04912)
GSK3B (human) = GSK3B (human) (UniProt P49841)
RAF1 (human) = RAF1 (human) (UniProt P04049)
CAMK2D (human) = CAMK2D (human) (UniProt Q13557)
BMPR2 (human) = BMPR2 (human) (UniProt Q13873)
BMPR2 (human), sequence (Q13873 whole entry, looked up): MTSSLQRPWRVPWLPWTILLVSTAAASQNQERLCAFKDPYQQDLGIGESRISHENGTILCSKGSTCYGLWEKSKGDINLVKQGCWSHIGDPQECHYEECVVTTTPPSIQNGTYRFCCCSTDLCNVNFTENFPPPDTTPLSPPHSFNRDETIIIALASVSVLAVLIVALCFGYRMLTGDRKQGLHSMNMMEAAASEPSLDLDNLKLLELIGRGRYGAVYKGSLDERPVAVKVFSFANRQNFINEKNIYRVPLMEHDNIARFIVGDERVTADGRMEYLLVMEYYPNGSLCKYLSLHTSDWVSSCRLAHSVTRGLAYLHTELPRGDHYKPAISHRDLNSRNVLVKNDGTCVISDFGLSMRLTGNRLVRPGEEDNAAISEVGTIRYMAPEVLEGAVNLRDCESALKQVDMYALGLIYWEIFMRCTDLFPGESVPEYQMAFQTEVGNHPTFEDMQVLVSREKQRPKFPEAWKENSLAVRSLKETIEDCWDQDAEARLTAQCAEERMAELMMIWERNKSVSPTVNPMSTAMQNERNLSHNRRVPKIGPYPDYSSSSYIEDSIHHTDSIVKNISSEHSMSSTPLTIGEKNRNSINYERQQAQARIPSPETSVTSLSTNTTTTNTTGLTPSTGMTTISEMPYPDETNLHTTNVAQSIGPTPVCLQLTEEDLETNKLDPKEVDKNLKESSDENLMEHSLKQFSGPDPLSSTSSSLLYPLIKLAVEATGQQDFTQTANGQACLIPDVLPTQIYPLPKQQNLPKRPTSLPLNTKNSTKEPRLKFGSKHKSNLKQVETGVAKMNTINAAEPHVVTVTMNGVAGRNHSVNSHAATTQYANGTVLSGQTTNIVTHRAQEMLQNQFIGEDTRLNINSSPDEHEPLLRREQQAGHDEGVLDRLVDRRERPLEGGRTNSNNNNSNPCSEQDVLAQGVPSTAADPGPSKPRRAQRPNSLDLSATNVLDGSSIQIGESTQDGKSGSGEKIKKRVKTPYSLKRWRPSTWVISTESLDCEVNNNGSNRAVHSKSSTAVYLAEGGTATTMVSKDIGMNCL

PRKD1 (human), sequence (Q15139 whole entry, looked up): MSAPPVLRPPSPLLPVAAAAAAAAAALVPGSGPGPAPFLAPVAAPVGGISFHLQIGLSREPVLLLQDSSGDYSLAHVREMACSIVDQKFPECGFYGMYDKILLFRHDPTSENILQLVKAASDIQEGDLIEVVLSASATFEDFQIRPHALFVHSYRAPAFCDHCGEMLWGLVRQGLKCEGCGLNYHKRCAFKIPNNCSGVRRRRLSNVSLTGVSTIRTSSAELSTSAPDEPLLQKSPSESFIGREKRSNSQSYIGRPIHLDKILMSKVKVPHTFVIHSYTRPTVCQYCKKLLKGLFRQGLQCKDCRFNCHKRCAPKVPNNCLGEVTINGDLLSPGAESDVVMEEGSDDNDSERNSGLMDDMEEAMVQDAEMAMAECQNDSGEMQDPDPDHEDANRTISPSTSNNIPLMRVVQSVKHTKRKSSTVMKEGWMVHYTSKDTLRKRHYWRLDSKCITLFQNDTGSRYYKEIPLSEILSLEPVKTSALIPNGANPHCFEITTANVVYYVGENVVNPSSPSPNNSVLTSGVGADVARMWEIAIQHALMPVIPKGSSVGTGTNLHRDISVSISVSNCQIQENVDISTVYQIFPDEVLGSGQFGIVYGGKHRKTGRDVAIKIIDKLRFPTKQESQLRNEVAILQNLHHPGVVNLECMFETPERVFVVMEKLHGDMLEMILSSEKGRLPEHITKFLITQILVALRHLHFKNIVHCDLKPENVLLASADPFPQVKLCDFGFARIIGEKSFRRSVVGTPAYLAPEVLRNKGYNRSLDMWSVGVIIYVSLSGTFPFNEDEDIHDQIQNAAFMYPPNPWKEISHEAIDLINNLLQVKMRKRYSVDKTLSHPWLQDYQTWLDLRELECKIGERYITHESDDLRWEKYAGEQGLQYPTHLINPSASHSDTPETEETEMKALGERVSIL
RIOK1 (human), sequence (Q9BRS2 whole entry, looked up): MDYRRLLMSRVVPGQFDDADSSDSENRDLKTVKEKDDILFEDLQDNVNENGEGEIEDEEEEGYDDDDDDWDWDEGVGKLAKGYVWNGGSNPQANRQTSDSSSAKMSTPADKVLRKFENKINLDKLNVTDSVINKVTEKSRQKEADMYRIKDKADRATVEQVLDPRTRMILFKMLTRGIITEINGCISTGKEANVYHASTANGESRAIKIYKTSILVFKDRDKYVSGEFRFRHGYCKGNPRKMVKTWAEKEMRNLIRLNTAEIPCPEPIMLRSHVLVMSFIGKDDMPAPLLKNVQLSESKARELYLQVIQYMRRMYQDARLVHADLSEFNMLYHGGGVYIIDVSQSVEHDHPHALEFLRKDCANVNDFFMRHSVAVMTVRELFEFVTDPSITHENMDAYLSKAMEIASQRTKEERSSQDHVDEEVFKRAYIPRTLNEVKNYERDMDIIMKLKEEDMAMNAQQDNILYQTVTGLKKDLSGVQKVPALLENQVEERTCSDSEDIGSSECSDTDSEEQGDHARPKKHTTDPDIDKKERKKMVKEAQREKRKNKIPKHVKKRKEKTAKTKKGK
MARK4 (human), sequence (Q96L34 whole entry, looked up): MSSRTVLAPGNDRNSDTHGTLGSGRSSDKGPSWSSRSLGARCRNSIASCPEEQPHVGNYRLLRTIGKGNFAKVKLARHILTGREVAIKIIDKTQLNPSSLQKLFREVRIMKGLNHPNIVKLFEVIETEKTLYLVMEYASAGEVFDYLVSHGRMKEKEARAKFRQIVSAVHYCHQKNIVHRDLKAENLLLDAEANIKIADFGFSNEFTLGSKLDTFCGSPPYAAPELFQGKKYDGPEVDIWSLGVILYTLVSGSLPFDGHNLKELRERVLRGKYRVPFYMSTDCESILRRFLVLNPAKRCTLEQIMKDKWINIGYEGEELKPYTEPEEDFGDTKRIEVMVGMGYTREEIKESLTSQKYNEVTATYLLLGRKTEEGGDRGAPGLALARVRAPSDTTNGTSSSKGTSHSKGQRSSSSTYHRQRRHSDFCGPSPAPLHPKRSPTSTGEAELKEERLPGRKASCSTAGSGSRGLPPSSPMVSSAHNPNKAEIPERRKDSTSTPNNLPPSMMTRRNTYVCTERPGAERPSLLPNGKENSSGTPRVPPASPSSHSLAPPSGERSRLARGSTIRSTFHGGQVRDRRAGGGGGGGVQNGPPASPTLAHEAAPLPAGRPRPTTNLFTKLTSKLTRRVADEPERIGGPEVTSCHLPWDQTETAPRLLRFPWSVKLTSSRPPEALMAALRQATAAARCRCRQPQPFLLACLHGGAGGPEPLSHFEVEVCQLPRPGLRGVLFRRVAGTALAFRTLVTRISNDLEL
HUNK (human), sequence (P57058 whole entry, looked up): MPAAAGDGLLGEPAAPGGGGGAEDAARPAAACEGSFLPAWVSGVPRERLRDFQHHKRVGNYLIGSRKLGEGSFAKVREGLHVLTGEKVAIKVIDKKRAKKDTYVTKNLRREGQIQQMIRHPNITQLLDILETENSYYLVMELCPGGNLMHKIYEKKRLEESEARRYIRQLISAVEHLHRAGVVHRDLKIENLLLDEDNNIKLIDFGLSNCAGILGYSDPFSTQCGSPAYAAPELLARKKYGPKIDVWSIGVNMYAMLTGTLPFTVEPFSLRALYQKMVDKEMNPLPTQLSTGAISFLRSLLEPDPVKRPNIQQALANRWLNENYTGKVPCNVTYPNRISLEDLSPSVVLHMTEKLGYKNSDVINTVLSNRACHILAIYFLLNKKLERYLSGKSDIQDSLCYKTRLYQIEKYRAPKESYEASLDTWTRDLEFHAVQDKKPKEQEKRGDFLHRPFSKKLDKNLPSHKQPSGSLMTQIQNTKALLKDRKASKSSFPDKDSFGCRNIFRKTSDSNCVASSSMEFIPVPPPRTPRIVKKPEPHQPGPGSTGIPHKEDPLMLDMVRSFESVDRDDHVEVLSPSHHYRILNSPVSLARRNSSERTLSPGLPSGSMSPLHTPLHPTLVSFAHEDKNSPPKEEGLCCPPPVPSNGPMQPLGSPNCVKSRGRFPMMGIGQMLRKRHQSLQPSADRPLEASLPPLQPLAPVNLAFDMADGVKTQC
PTK2B (human), sequence (Q14289 whole entry, looked up): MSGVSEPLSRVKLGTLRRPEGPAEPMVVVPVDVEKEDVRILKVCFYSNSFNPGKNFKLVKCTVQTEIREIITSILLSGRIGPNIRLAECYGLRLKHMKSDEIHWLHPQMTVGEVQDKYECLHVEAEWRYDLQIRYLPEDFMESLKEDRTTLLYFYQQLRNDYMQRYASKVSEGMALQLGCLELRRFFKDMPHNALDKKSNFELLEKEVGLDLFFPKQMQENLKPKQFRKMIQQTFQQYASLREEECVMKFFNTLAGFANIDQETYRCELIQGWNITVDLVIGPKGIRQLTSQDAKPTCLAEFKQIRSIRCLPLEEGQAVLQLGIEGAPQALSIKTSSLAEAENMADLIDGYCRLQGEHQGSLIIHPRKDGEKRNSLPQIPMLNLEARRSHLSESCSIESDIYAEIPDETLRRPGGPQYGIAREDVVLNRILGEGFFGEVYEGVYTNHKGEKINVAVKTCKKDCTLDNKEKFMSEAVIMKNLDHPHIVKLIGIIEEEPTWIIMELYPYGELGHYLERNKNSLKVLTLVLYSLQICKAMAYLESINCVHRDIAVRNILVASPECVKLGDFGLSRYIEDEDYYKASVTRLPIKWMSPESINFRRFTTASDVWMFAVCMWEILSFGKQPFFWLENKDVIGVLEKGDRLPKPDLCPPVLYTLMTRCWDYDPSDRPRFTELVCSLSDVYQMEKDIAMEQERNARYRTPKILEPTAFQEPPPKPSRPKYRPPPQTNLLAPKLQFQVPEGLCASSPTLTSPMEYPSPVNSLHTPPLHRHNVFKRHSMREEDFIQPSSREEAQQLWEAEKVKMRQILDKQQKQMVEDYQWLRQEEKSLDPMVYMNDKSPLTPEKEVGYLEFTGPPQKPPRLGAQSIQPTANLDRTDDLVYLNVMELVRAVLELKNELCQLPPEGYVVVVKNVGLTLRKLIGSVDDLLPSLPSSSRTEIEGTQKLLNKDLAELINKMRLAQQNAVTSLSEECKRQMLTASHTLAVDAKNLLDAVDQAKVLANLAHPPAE

CN(C)C/C=C/C(=O)Nc1ccc(C(=O)Nc2cccc(Nc3nccc(-c4cccnc4)n3)c2)cc1
kinase still bound, per cent of control (TEC (human)): 100% | kinase still bound, per cent of control (PTK2B (human)): 100% | kinase still bound, per cent of control (IGF1R (human)): 100% | kinase still bound, per cent of control (MYLK4 (human)): 36% | kinase still bound, per cent of control (RIOK1 (human)): 10% | kinase still bound, per cent of control (CDK19 (human)): 100% | kinase still bound, per cent of control (PRKCD (human)): 100% | kinase still bound, per cent of control (AAK1 (human)): 5.2% | kinase still bound, per cent of control (CDK8 (human)): 78% | kinase still bound, per cent of control (PI4KB (human)): 51% | kinase still bound, per cent of control (PIK3CB (human)): 100% | kinase still bound, per cent of control (MAPK3 (human)): 100% | kinase still bound, per cent of control (PRKG2 (human)): 76% | kinase still bound, per cent of control (CDK9 (human)): 90% | kinase still bound, per cent of control (STK36 (human)): 99% | kinase still bound, per cent of control [1]: 40% | kinase still bound, per cent of control (TRPM6 (human)): 100% | kinase still bound, per cent of control (CDK5 (human)): 100% | kinase still bound, per cent of control (IKBKE (human)): 76% | kinase still bound, per cent of control (DYRK2 (human)): 29% | kinase still bound, per cent of control (MARK4 (human)): 26% | kinase still bound, per cent of control (PRKD1 (human)): 100% | kinase still bound, per cent of control (CSNK1G2 (human)): 100% | kinase still bound, per cent of control (PRKD2 (human)): 100% | kinase still bound, per cent of control (AKT1 (human)): 100% | kinase still bound, per cent of control (MAP3K15 (human)): 56% | kinase still bound, per cent of control (HUNK (human)): 69% | kinase still bound, per cent of control (CLK2 (human)): 2.2% | kinase still bound, per cent of control (CDK2 (human)): 100% | kinase still bound, per cent of control (MAP3K12 (human)): 74% | kinase still bound, per cent of control (NEK11 (human)): 100% | kinase still bound, per cent of control (EPHB1 (human)): 100% | kinase still bound, per cent of control (PRKCE (human)): 75% | kinase still bound, per cent of control (ULK1 (human)): 97% | kinase still bound, per cent of control (NEK9 (human)): 22% | kinase still bound, per cent of control (MST1R (human)): 100% | kinase still bound, per cent of control (GSK3B (human)): 67% | kinase still bound, per cent of control (RAF1 (human)): 100% | kinase still bound, per cent of control (CAMK2D (human)): 67% | kinase still bound, per cent of control (BMPR2 (human)): 100%
